Measurements as given in patent US11618747B2, “LXR modulators with bicyclic core moiety” (OrsoBio, Inc., priority 2018, dated 2023).

What follows are compounds tested against T1, LXRβ ligand-binding domain (Homo sapiens, UniProt P55055, DUP175-175) (assay: TR-FRETβ activity assay (NCoA3 coactivator peptide recruitment)). Conditions: TR-FRET, 1 μM 24(S)-25-epoxycholesterol prestimulation; read-out: FRETβ (EC50 range).
T1 construct: amino acids 156-461; NP009052; made in house; host or cells: E. coli
T1 sequence (P55055 with tags, fused parts or gaps DUP175-175 limits assumed): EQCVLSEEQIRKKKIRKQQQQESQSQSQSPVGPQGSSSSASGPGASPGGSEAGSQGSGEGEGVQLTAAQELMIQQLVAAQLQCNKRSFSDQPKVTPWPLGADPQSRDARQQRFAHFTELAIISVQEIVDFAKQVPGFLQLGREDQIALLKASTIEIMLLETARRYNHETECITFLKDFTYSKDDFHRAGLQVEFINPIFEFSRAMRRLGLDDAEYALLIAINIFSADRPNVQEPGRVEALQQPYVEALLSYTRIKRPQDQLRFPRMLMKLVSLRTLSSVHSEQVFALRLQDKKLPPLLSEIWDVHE
Assay type: biochemical
Procedure, shortened: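 Inverse agonism assessed by loss of coactivator recruitment, read as TR-FRET 665/615 nm after 1 h equilibration at 4 °C, in triplicate. Ten-point titration from 50 μM to 0.002 μM against LXRβ LBD (76 nM, GST fusion) prestimulated with 1 μM 24(S)-25-epoxycholesterol, with 400 nM NCoA3 peptide, pH 6.8. Sulfonyl acetic acids kept as 20 mM DMSO stocks with 100 mM TFA.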

Row | SMILES | EC50
1 | Cc1ccc(S(=O)(=O)n2c(-c3cccc(N4CC(C(=O)O)C4)c3)c(-c3ccsc3C#N)c3cc(C#N)ccc32)cc1 [3/45] | 1000 to 10000 nM
2 | Cc1ccc(S(=O)(=O)n2c(-c3cccc(-c4ccc(C(=O)O)nc4)c3)c(-c3ccsc3C#N)c3cc(F)ccc32)cc1 [3/47] | 100 to 1000 nM
3 | Cc1ccc(S(=O)(=O)n2c(-c3cccc(-c4ccc(C(=O)O)c(Cl)c4)c3)c(-c3ccsc3C#N)c3cc(F)ccc32)cc1 [3/49] | 100 to 1000 nM
4 | Cc1ccc(S(=O)(=O)n2c(-c3cccc(N4CCC(C)(C(=O)O)CC4)c3)c(-c3ccsc3C#N)c3cc(F)ccc32)cc1 [3/50] | 100 to 1000 nM
5 | Cc1ccc(S(=O)(=O)n2c(-c3cccc(N4CC(C(=O)NC(C)(C)C(=O)O)C4)c3)c(-c3ccsc3C#N)c3cc(F)ccc32)cc1 [3/52] | 100 to 1000 nM
6 | COc1cc(F)cc2c(-c3ccsc3C#N)c(-c3cccc(-c4ccc(C(=O)O)cc4)c3)n(S(=O)(=O)c3ccc(C)cc3)c12 [3/53] | < 100 nM
7 | Cc1ccc(S(=O)(=O)n2c(-c3cccc(-c4ccc(C(=O)O)cc4)c3)c(-c3ccsc3C#N)c3cc(F)cc(O)c32)cc1 [3/54] | 100 to 1000 nM
8 | Cc1ccc(S(=O)(=O)n2c(-c3cccc(-c4ccc(C(C)(O)C(=O)O)cc4)c3)c(-c3ccsc3C#N)c3cc(F)ccc32)cc1 (stereo not drawn) [3/55] | 100 to 1000 nM
9 | O=C(O)c1ccc(-c2cccc(-c3c(-c4ccccc4C4COC4)c4cc(F)ccc4n3S(=O)(=O)c3ccc(Cl)cc3)c2)c(Cl)c1 [3/56] | < 100 nM
10 | N#Cc1sccc1-c1c(-c2cccc(-c3ccc(C(=O)O)cc3Cl)c2)n(S(=O)(=O)c2ccc(Cl)cc2)c2ccc(F)cc12 [3/57] | 100 to 1000 nM
11 | Cc1ccc(S(=O)(=O)n2c(-c3cccc(N4[C@@H]5CC[C@H]4C[C@@H](C(=O)O)C5)c3)c(-c3ccsc3C#N)c3cc(F)ccc32)cc1 [3/58] | 1000 to 10000 nM
12 | N#Cc1sccc1-c1c(-c2cccc(N3CCC(C(=O)O)CC3)c2)n(S(=O)(=O)c2ccc(C(F)F)cc2)c2ccc(F)cc12 [3/60] | 100 to 1000 nM

What follows are compounds tested against T2, full length (FL) LXRβ (Homo sapiens, UniProt P55055, DUP175-175) (assay: LXR Gal4 reporter transient transfection assay (FL-M2H Gal4β)). Conditions: HEK293 cells, full length LXRβ; read-out: FL-M2H Gal4β (EC50 range).
T2 construct: the full length (FL) proteins of LXRα (amino acids 1-447); NP005684; NP009052; expressed in transfected cells; host or cells: HEK293
T2 sequence (P55055 with tags, fused parts or gaps DUP175-175): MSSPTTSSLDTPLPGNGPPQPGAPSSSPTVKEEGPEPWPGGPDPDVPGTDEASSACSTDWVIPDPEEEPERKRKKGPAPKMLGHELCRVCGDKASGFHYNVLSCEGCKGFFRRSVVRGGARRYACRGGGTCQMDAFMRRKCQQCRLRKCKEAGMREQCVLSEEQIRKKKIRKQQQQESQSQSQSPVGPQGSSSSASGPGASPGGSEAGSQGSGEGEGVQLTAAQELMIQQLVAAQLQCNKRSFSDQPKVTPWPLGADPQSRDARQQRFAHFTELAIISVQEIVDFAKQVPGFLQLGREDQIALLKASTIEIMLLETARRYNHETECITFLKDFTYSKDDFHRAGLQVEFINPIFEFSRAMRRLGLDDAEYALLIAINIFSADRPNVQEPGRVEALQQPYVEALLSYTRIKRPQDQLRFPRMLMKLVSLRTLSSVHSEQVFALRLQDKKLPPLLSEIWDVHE
Assay type: cell-based
Procedure, shortened: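 Test compounds act for 16 h on transiently transfected HEK293 cells carrying AD-LXR and GAL4 BD-cofactor (SRC1 or NCoR) fusions. Firefly luciferase under GAL4 elements is quantified and corrected with Renilla luciferase for transfection efficiency.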

Row | SMILES | EC50
13 | Cc1ccc(S(=O)(=O)n2c(-c3cccc(N4CC(C(=O)O)C4)c3)c(-c3ccsc3C#N)c3cc(C#N)ccc32)cc1 [3/45] | 100 to 1000 nM
14 | Cc1ccc(S(=O)(=O)n2c(-c3cccc(-c4ccc(C(=O)O)nc4)c3)c(-c3ccsc3C#N)c3cc(F)ccc32)cc1 [3/47] | < 100 nM
15 | Cc1ccc(S(=O)(=O)n2c(-c3cccc(-c4ccc(C(=O)O)c(Cl)c4)c3)c(-c3ccsc3C#N)c3cc(F)ccc32)cc1 [3/49] | < 100 nM
16 | Cc1ccc(S(=O)(=O)n2c(-c3cccc(N4CCC(C)(C(=O)O)CC4)c3)c(-c3ccsc3C#N)c3cc(F)ccc32)cc1 [3/50] | < 100 nM
17 | Cc1ccc(S(=O)(=O)n2c(-c3cccc(N4CC(C(=O)NC(C)(C)C(=O)O)C4)c3)c(-c3ccsc3C#N)c3cc(F)ccc32)cc1 [3/52] | 100 to 1000 nM
18 | COc1cc(F)cc2c(-c3ccsc3C#N)c(-c3cccc(-c4ccc(C(=O)O)cc4)c3)n(S(=O)(=O)c3ccc(C)cc3)c12 [3/53] | < 100 nM
19 | Cc1ccc(S(=O)(=O)n2c(-c3cccc(-c4ccc(C(=O)O)cc4)c3)c(-c3ccsc3C#N)c3cc(F)cc(O)c32)cc1 [3/54] | < 100 nM
20 | Cc1ccc(S(=O)(=O)n2c(-c3cccc(-c4ccc(C(C)(O)C(=O)O)cc4)c3)c(-c3ccsc3C#N)c3cc(F)ccc32)cc1 (stereo not drawn) [3/55] | < 100 nM
21 | O=C(O)c1ccc(-c2cccc(-c3c(-c4ccccc4C4COC4)c4cc(F)ccc4n3S(=O)(=O)c3ccc(Cl)cc3)c2)c(Cl)c1 [3/56] | < 100 nM
22 | N#Cc1sccc1-c1c(-c2cccc(-c3ccc(C(=O)O)cc3Cl)c2)n(S(=O)(=O)c2ccc(Cl)cc2)c2ccc(F)cc12 [3/57] | < 100 nM
23 | Cc1ccc(S(=O)(=O)n2c(-c3cccc(N4[C@@H]5CC[C@H]4C[C@@H](C(=O)O)C5)c3)c(-c3ccsc3C#N)c3cc(F)ccc32)cc1 [3/58] | < 100 nM
24 | N#Cc1sccc1-c1c(-c2cccc(N3CCC(C(=O)O)CC3)c2)n(S(=O)(=O)c2ccc(C(F)F)cc2)c2ccc(F)cc12 [3/60] | < 100 nM

These compounds were tested against T3, full length (FL) LXRα (Homo sapiens, UniProt Q13133) (assay: LXR Gal4 reporter transient transfection assay (FL-M2H Gal4α)). Conditions: HEK293 cells, full length LXRα; read-out: FL-M2H Gal4α (EC50 range).
T3 construct: the full length (FL) proteins of LXRα (amino acids 1-447); NP005684; expressed in transfected cells; host or cells: HEK293
T3 sequence (Q13133 1-447): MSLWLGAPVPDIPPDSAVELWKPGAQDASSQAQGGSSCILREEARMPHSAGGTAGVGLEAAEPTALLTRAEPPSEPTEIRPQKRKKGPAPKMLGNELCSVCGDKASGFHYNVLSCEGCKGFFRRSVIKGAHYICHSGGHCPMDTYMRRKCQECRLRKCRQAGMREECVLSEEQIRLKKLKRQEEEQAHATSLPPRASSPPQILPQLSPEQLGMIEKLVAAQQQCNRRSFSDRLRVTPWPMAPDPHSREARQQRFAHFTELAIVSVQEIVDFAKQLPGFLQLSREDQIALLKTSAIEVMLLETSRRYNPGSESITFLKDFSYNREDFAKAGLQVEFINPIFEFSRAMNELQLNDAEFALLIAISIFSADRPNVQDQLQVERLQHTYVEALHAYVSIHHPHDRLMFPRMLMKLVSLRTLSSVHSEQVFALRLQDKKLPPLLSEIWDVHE
Assay type: cell-based
Description: The tested compounds were usually dissolved, tested and stored as 20 mM stock solutions in DMSO. Since sulfonyl acetic acid derivatives tend to decarboxylate under these conditions, these stock solutions were prepared, tested and stored as 20 mM DMSO stock solutions containing 100 mM trifluoroacetic Acid (5 equivalents). Sulfonyl acetic acid derivatives are shelf stable as solid at rt for long time as reported by Griesbrecht et al. (Synlett 2010:374) or Faucher et al. (J. Med. Chem. 2004; 47:18).
LXR Gal4 Reporter Transient Transfection Assays
LXRα and LXRβ activity status was determined via detection of interaction with coactivator and corepressor proteins in mammalian two-hybrid experiments (M2H). For this, via transient transfection the full length (FL) proteins of LXRα (amino acids 1-447; NP005684; SEQ ID NO:1) or LXRβ-(amino acids 1-461; NP009052; SEQ ID NO:2) or the ligand-binding domains (LBD) of LXRα (amino acids 155-447 SEQ ID NO:3) or LXRβ (amino acids 156-461; SEQ ID NO:4) were expressed from pCMV-AD (Stratagene) as fusions to the transcriptional activation domain of NFkB. As cofactors, domains of either the steroid receptor coactivator 1 (SRC1; amino acids 552-887; SEQ ID NO:5) or of the corepressor NCoR (amino acids 1906-2312; NP006302; SEQ ID NO:6) were expressed as fusions to the DNA binding domain of the yeast transcription factor GAL4 (from pCMV-BD; Stratagene). Interaction was monitored via activation of a coexpressed Firefly Luciferase Reporter gene under control of a promoter containing repetitive GAL4 response elements (vector pFRLuc; Stratagene). Transfection efficiency was controlled via cotransfection of constitutively active pRL-CMV Renila reniformis luciferase reporter (Promega). HEK293 cells were grown in minimum essential medium (MEM) with 2 mM L-glutamine and Earle's balanced salt solution supplemented with 8.3% fetal bovine serum, 0.1 mM non-essential amino acids, 1 mM sodium pyruvate, at 37° C. in 5% CO2. 3.5×10^4 cells/well were plated in 96-well cell culture plates in growth medium supplemented with 8.3% fetal bovine serum for 16-20 h to ˜90% confluency. For transfection, medium was taken off and LXR and cofactor expressing plasmids as well as the reporter plasmids are added in 30 μL OPTIMEM/well including polyethylene-imine (PEI) as vehicle. Typical amounts of plasmids transfected/well: pCMV-AD-LXR (5 ng), pCMV-BD-cofactor (5 ng), pFR-Luc (100 ng), pRL-CMV (0.5 ng). Compound stocks were prepared in DMSO, prediluted in MEM to a total volume of 120 μL, and added 4 h after addition of the transfection mixture (final vehicle concentration not exceeding 0.2%). Cells were incubated for additional 16 h, lysed for 10 min in 1× Passive Lysis Buffer (Promega) and Firefly and Renilla luciferase activities were measured sequentially in the same cell extract using buffers containing D-luciferine and coelenterazine, respectively. Measurements of luminescence were done in a BMG-luminometer.

Row | SMILES | EC50
25 | Cc1ccc(S(=O)(=O)n2c(-c3cccc(N4CC(C(=O)O)C4)c3)c(-c3ccsc3C#N)c3cc(C#N)ccc32)cc1 [3/45] | 100 to 1000 nM
26 | Cc1ccc(S(=O)(=O)n2c(-c3cccc(-c4ccc(C(=O)O)nc4)c3)c(-c3ccsc3C#N)c3cc(F)ccc32)cc1 [3/47] | < 100 nM
27 | Cc1ccc(S(=O)(=O)n2c(-c3cccc(-c4ccc(C(=O)O)c(Cl)c4)c3)c(-c3ccsc3C#N)c3cc(F)ccc32)cc1 [3/49] | < 100 nM
28 | Cc1ccc(S(=O)(=O)n2c(-c3cccc(N4CCC(C)(C(=O)O)CC4)c3)c(-c3ccsc3C#N)c3cc(F)ccc32)cc1 [3/50] | < 100 nM
29 | Cc1ccc(S(=O)(=O)n2c(-c3cccc(N4CC(C(=O)NC(C)(C)C(=O)O)C4)c3)c(-c3ccsc3C#N)c3cc(F)ccc32)cc1 [3/52] | 100 to 1000 nM
30 | COc1cc(F)cc2c(-c3ccsc3C#N)c(-c3cccc(-c4ccc(C(=O)O)cc4)c3)n(S(=O)(=O)c3ccc(C)cc3)c12 [3/53] | < 100 nM
31 | Cc1ccc(S(=O)(=O)n2c(-c3cccc(-c4ccc(C(=O)O)cc4)c3)c(-c3ccsc3C#N)c3cc(F)cc(O)c32)cc1 [3/54] | < 100 nM
32 | Cc1ccc(S(=O)(=O)n2c(-c3cccc(-c4ccc(C(C)(O)C(=O)O)cc4)c3)c(-c3ccsc3C#N)c3cc(F)ccc32)cc1 (stereo not drawn) [3/55] | < 100 nM
33 | O=C(O)c1ccc(-c2cccc(-c3c(-c4ccccc4C4COC4)c4cc(F)ccc4n3S(=O)(=O)c3ccc(Cl)cc3)c2)c(Cl)c1 [3/56] | < 100 nM
34 | N#Cc1sccc1-c1c(-c2cccc(-c3ccc(C(=O)O)cc3Cl)c2)n(S(=O)(=O)c2ccc(Cl)cc2)c2ccc(F)cc12 [3/57] | < 100 nM
35 | Cc1ccc(S(=O)(=O)n2c(-c3cccc(N4[C@@H]5CC[C@H]4C[C@@H](C(=O)O)C5)c3)c(-c3ccsc3C#N)c3cc(F)ccc32)cc1 [3/58] | < 100 nM
36 | N#Cc1sccc1-c1c(-c2cccc(N3CCC(C(=O)O)CC3)c2)n(S(=O)(=O)c2ccc(C(F)F)cc2)c2ccc(F)cc12 [3/60] | < 100 nM
